Data: ChEMBL document CHEMBL5678803, “Selective blockade of TRPA1 channel attenuates pathological pain without altering noxious cold sensation or body temperature regulation” (Pain, 2011)

Legend:
Rattus norvegicus [1] = test: Antiallodynic activity in spinal nerve ligation-induced neuropathic pain Sprague-Dawley rat model assessed as attenuation of mechanical allodynia at 100 mg/kg, po administered with compound for 1 hrs and measured 10 to 14 days after surgery relative to control; assay type: functional; conditions: time 241-337 hrs
Rattus norvegicus [2] = test: Antiallodynic activity in CFA-induced mechanical allodynia Sprague-Dawley rat model assessed as attenuation of mechanical allodynia at 100 mg/kg, po administered with compound for 1 hrs and measured 48 hrs after CFA injection relative to control; assay type: functional; conditions: time 49 hrs
Rattus norvegicus [3] = test: Antiallodynic activity in CCI-induced neuropathic pain Sprague-Dawley rat model assessed as attenuation of mechanical allodynia at 100 mg/kg, po administered with compound for 1 hrs and measured 10 to 14 days after surgery relative to control; assay type: functional; conditions: time 241-337 hrs
[4] = Toxicity in Sprague-Dawley rat assessed as increase in body temperature at 1.16 mg/kg, po measured after 480 mins by radiotelemetric analysis; assay type: organism-based; conditions: in vivo, 8 h
[5] = Toxicity in Sprague-Dawley rat assessed as effect on tail withdrawal latency to hot water immersion at 55 degreeC at 11.6 mg/kg, po by tail immersion test; assay type: organism-based; conditions: in vivo
[6] = Toxicity in Sprague-Dawley rat assessed as increase in body temperature at 3.88 mg/kg, po measured after 480 mins by radiotelemetric analysis; assay type: organism-based; conditions: in vivo, 8 h
[7] = biological target: Transient receptor potential cation channel subfamily A member 1 (Rattus norvegicus, UniProt Q6RI86); test: Antagonist activity at rat TRPA1 expressed in HEK293F cells assessed as reduction in AITC-induced increase in intracellular Ca2+ level by FLIPR-based Ca2+ assay; assay type: cell-based
[8] = biological target: T1, Transient receptor potential cation channel subfamily A member 1 (Homo sapiens, UniProt O75762); test: Antagonist activity at TRPA1 (unknown origin)
[9] = biological target: T1, Transient receptor potential cation channel subfamily A member 1; test: Antagonist activity at recombinant human TRPA1 expressed in HEK293F cells assessed as reduction in AITC-induced increase in intracellular Ca2+ level by FLIPR-based Ca2+ assay; assay type: cell-based
[10] = biological target: Cannabinoid receptor 2 (Homo sapiens) (UniProt P34972); test: Inhibition of CB2 receptor (unknown origin) at 10 micromol/L by radioligand binding assay relative to control; conditions: dose 10.0 µmol/L
Homo sapiens [11] = species: Homo sapiens; test: Inhibition of sodium channel (unknown origin) at 10 micromol/L by radioligand binding assay relative to control; conditions: dose 10.0 µmol/L
Homo sapiens [12] = species: Homo sapiens; test: Inhibition of sigma receptor (unknown origin) at 10 micromol/L by radioligand binding assay relative to control; conditions: dose 10.0 µmol/L

T1 sequence (O75762 whole entry): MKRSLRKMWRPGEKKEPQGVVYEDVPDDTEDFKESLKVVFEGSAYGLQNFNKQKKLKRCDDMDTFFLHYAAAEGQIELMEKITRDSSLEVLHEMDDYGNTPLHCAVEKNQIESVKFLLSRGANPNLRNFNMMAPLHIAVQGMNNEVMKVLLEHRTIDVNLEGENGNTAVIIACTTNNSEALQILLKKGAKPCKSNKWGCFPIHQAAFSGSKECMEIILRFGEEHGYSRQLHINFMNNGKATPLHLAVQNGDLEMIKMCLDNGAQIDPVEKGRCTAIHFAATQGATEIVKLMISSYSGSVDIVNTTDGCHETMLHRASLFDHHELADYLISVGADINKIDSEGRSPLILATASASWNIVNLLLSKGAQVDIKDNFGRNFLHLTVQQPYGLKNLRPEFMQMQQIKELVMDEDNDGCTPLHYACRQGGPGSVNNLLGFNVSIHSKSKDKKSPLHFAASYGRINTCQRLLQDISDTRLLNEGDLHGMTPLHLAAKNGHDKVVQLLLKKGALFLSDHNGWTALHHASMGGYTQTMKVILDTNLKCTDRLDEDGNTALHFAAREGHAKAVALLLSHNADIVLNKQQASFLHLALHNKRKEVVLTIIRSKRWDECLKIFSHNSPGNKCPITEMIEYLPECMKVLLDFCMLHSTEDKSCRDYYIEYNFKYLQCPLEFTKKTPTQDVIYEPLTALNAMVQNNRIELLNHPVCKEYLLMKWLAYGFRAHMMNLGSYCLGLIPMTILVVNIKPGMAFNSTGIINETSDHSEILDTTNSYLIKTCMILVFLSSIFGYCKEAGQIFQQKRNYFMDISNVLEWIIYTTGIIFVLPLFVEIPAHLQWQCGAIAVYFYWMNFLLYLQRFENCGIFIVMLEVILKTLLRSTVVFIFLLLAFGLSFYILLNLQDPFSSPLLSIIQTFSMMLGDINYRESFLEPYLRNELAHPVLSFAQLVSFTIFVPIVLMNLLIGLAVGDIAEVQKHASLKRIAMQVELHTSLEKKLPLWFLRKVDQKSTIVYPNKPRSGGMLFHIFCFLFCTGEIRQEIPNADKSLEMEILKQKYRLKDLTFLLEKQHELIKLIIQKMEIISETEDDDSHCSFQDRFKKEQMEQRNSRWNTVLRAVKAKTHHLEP
Transient receptor potential cation channel subfamily A member 1 (Rattus norvegicus, UniProt Q6RI86), sequence (Q6RI86 whole entry): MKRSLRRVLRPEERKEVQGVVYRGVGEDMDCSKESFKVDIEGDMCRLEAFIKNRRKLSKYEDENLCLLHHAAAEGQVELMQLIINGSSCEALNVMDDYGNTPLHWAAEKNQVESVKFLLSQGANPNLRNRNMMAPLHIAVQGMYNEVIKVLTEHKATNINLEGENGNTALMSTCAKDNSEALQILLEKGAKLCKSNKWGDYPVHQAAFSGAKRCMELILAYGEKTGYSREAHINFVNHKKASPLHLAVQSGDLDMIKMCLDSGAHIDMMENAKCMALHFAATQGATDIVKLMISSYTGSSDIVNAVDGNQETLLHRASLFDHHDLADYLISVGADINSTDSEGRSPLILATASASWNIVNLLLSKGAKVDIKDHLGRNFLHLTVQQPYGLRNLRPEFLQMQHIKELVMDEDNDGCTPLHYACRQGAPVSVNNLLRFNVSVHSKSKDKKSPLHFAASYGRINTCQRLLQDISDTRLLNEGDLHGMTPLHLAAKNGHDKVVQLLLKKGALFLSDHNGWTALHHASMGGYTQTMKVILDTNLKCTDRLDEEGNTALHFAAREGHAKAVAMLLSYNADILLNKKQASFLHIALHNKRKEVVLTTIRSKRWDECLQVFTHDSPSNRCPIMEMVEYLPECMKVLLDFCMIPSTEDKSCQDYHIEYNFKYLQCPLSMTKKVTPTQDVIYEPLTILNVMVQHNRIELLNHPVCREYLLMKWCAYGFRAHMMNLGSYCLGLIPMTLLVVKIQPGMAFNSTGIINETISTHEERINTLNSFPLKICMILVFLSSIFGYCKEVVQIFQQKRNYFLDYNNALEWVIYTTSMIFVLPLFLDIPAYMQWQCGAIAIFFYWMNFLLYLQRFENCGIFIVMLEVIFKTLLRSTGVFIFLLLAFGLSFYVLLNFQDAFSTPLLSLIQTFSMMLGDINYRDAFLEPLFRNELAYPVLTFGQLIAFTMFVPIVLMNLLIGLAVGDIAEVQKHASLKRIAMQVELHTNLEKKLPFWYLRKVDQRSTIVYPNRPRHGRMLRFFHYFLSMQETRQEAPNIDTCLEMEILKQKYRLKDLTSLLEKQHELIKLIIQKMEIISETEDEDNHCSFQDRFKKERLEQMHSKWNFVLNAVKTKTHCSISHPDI
Cannabinoid receptor 2 (Homo sapiens), sequence (P34972 whole entry): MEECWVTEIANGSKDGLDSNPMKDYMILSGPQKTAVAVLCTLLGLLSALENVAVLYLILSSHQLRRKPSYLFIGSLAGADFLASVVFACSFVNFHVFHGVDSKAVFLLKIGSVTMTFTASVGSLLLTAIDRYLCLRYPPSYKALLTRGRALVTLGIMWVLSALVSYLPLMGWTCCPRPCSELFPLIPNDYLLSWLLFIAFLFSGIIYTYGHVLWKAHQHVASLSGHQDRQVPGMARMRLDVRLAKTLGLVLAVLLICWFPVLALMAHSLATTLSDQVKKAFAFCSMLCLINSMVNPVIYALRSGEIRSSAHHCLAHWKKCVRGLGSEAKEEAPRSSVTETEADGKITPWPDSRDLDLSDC

NCC1(CC(=O)O)CCCCC1 [GABAPENTIN]
Activity (Rattus norvegicus [1]): 50%
Activity (Rattus norvegicus [2]): 50%
Activity (Rattus norvegicus [3]): 50%

Cc1nc(Nc2cccc3c2C[C@H](O)CC3)oc1-c1ccc(C(F)(F)F)cc1
deltaT [4]: 0.6 °C
Activity [5]: Toxic
deltaT [6]: 0.9 °C

CC(=N/O)/C(C)=C/c1ccc(Cl)cc1
IC50 [7]: 8.8 µM
IC50 [8]: 3.1 µM
IC50 [9]: 6.9 µM

CC(C)c1ccc(NC(=O)Cn2cnc3c2c(=O)n(C)c(=O)n3C)cc1
inhibition [10]: 33%
inhibition (Homo sapiens [11]): 40%
inhibition (Homo sapiens [12]): 37%
IC50 [7]: 6.9 µM
IC50 [9]: 6.9 µM
